Results from patent US20250353891A1 (MEDIMMUNE LIMITED, priority 2022, published 2025).
Starred links: 1 amine or outer side, 2 acyl side, 3 side chain; linkers in the order of their positions; H or OH if unused. Non-standard residues stand in square brackets, D forms with d. Residues, ends and D or L forms follow the SMILES beside them. Groups on a side chain read outwards from the residue. *: point of attachment. C18 diacid = O=C(O)CCCCCCCCCCCCCCCCC(=O)*; γGlu = O=C(O)[C@H](CCC(=O)[*:2])N[*:1]; αMeF = C[C@](N)(Cc1ccccc1)C(=O)O; AEEA = NCCOCCOCC(=O)O; Aib = CC(C)(N)C(=O)O

What was measured:
[1] = molecular target: human glucagon receptor (hGCGR) (Homo sapiens, UniProt P47871); experiment: cAMP production (HTRF) in CHO cells expressing hGCGR; type: cell-based; parameters: expressed in transfected cells; conditions: Table 6, peptides modified at position 17; cAMP in CHO hGCGR cells; geometric mean; read-out: hGluc-R EC50
human glucagon receptor (hGCGR), sequence (P47871 26-477): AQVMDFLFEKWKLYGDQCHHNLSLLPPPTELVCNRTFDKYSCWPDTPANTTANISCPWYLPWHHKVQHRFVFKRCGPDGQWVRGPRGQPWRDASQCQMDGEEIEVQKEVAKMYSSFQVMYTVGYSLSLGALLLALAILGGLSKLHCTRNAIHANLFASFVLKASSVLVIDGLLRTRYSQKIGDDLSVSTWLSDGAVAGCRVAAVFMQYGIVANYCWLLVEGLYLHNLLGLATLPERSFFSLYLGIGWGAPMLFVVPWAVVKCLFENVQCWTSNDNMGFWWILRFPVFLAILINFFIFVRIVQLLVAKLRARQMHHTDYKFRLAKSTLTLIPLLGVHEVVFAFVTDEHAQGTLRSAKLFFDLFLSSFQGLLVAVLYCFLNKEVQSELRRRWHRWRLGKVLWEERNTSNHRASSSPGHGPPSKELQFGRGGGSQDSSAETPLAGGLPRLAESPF
Method in brief: (§1)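 Potency values represent EC50 from 4-parameter logistic curves of HTRF % Delta F signal. Receptor-expressing CHO cells (hGCGR 2×10^5 cells/mL, hGLP-1R 1×10^5 cells/mL) were exposed for 30 min at room temperature before two-step cAMP detection.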

[2] = molecular target: human GLP-1 receptor (hGLP-1R) (Homo sapiens, UniProt P43220); experiment: cAMP production (HTRF) in CHO cells expressing hGLP-1R; type: cell-based; parameters: expressed in transfected cells; conditions: for EC50: Table 6, peptides modified at position 17, cAMP in CHO hGLP-1R cells, geometric mean, read-out: hGLP-1R EC50; for % Relative Potency Ratio: Table 6, % GLP-1R activity relative to GLP-1 / % GlucR activity relative to glucagon
human GLP-1 receptor (hGLP-1R), sequence (P43220 24-463): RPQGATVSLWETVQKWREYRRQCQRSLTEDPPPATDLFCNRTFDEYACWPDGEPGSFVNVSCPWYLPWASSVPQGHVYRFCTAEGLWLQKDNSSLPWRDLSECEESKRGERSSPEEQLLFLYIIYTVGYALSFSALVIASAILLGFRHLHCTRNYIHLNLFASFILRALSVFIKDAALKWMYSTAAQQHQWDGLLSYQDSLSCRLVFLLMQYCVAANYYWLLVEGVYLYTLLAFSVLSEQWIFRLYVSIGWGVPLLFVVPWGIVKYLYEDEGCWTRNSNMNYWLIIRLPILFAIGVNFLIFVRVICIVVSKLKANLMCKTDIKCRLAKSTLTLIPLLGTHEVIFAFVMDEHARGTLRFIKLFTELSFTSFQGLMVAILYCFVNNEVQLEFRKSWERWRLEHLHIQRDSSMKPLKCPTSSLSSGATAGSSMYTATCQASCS
Method in brief: as §1

| EC50 [1] | EC50 [2] | % Relative Potency Ratio [2] | SMILES |
| --- | --- | --- | --- |
| 0.0226 nM | 0.0291 nM | 1.5 | CC(C)C[C@H](NC(=O)[C@H](Cc1c[nH]c2ccccc12)NC(=O)[C@H](CCCNC(=N)N)NC(=O)[C@@H](NC(=O)[C@H](Cc1ccccc1)NC(=O)[C@H](CC(=O)O)NC(=O)[C@H](CCC(N)=O)NC(=O)[C@H](C)NC(=O)[C@H](CCCNC(=N)N)NC(=O)[C@H](CCCCNC(=O)COCCOCCNC(=O)COCCOCCNC(=O)CC[C@H](NC(=O)CCCCCCCCCCCCCCCCC(=O)O)C(=O)O)NC(=O)[C@H](CCCCN)NC(=O)[C@H](CC(=O)O)NC(=O)[C@H](CC(C)C)NC(=O)[C@](C)(Cc1ccccc1)NC(=O)[C@H](CCCCN)NC(=O)[C@H](CO)NC(=O)[C@@H](NC(=O)[C@H](CC(=O)O)NC(=O)[C@H](CO)NC(=O)[C@@H](NC(=O)[C@H](Cc1ccccc1)NC(=O)[C@@H](NC(=O)CNC(=O)[C@H](CCC(N)=O)NC(=O)C(C)(C)NC(=O)[C@@H](N)Cc1c[nH]cn1)[C@@H](C)O)[C@@H](C)O)C(C)C)C(C)C)C(=O)N[C@@H](CC(C)C)C(=O)N[C@@H](CCC(=O)O)C(=O)NC(C)(C)C(=O)NCC(=O)O [Peptide 182] (H-H[Aib]QGTFTSDVSK[αMeF]LDKK([AEEA-AEEA-γGlu-C18 diacid])RAQDFVRWLLE[Aib]G-OH) |
| 0.0814 nM | 0.0237 nM | 6.8 | CC(C)C[C@H](NC(=O)[C@H](Cc1c[nH]c2ccccc12)NC(=O)[C@H](CCCNC(=N)N)NC(=O)[C@@H](NC(=O)[C@H](Cc1ccccc1)NC(=O)[C@H](CC(=O)O)NC(=O)[C@H](CCC(N)=O)NC(=O)[C@H](C)NC(=O)[C@H](CCCNC(=N)N)NC(=O)[C@H](CCCCNC(=O)COCCOCCNC(=O)COCCOCCNC(=O)CC[C@H](NC(=O)CCCCCCCCCCCCCCCCC(=O)O)C(=O)O)NC(=O)[C@H](CO)NC(=O)[C@H](CC(=O)O)NC(=O)[C@H](CC(C)C)NC(=O)[C@](C)(Cc1ccccc1)NC(=O)[C@H](CCCCN)NC(=O)[C@H](CO)NC(=O)[C@@H](NC(=O)[C@H](CC(=O)O)NC(=O)[C@H](CO)NC(=O)[C@@H](NC(=O)[C@H](Cc1ccccc1)NC(=O)[C@@H](NC(=O)CNC(=O)[C@H](CCC(N)=O)NC(=O)C(C)(C)NC(=O)[C@@H](N)Cc1c[nH]cn1)[C@@H](C)O)[C@@H](C)O)C(C)C)C(C)C)C(=O)N[C@@H](CC(C)C)C(=O)N[C@@H](CCC(=O)O)C(=O)NC(C)(C)C(=O)N[C@@H](CCCCN)C(=O)O [Peptide 183] |
| 0.0296 nM | 0.022 nM | 2.7 | CC(C)C[C@H](NC(=O)[C@H](CC(C)C)NC(=O)[C@H](Cc1c[nH]c2ccccc12)NC(=O)[C@H](CCCNC(=N)N)NC(=O)[C@@H](NC(=O)[C@H](Cc1ccccc1)NC(=O)[C@H](CC(=O)O)NC(=O)[C@H](CCC(N)=O)NC(=O)[C@H](C)NC(=O)[C@H](CCCNC(=N)N)NC(=O)[C@H](CCCCNC(=O)COCCOCCNC(=O)COCCOCCNC(=O)CCCCCCCCCCCCCCCCC(=O)O)NC(=O)[C@H](CCCCN)NC(=O)[C@H](CC(=O)O)NC(=O)[C@H](CC(C)C)NC(=O)[C@](C)(Cc1ccccc1)NC(=O)[C@H](CCCCN)NC(=O)[C@H](CO)NC(=O)[C@@H](NC(=O)[C@H](CC(=O)O)NC(=O)[C@H](CO)NC(=O)[C@@H](NC(=O)[C@H](Cc1ccccc1)NC(=O)[C@@H](NC(=O)CNC(=O)[C@H](CCC(N)=O)NC(=O)C(C)(C)NC(=O)[C@@H](N)Cc1c[nH]cn1)[C@@H](C)O)[C@@H](C)O)C(C)C)C(C)C)C(=O)N[C@@H](C)C(=O)NC(C)(C)C(=O)N[C@@H](CCCCN)C(=O)O [Peptide 184] (H-H[Aib]QGTFTSDVSK[αMeF]LDKK([AEEA-AEEA-C18 diacid])RAQDFVRWLLA[Aib]K-OH; N-terminus assumed) |
| 0.23 nM | 0.0441 nM | 10.3 | CC(C)C[C@H](NC(=O)[C@H](Cc1c[nH]c2ccccc12)NC(=O)[C@H](CCCNC(=N)N)NC(=O)[C@@H](NC(=O)[C@H](Cc1ccccc1)NC(=O)[C@H](CC(=O)O)NC(=O)[C@H](CCC(N)=O)NC(=O)[C@H](C)NC(=O)[C@H](CCCNC(=N)N)NC(=O)[C@H](CCCCNC(=O)COCCOCCNC(=O)COCCOCCNC(=O)CC[C@H](NC(=O)CCCCCCCCCCCCCCCCC(=O)O)C(=O)O)NC(=O)[C@@H](NC(=O)[C@H](CC(=O)O)NC(=O)[C@H](CC(C)C)NC(=O)[C@](C)(Cc1ccccc1)NC(=O)[C@H](CCCCN)NC(=O)[C@H](CO)NC(=O)[C@@H](NC(=O)[C@H](CC(=O)O)NC(=O)[C@H](CO)NC(=O)[C@@H](NC(=O)[C@H](Cc1ccccc1)NC(=O)[C@@H](NC(=O)CNC(=O)[C@H](CCC(N)=O)NC(=O)C(C)(C)NC(=O)[C@@H](N)Cc1c[nH]cn1)[C@@H](C)O)[C@@H](C)O)C(C)C)[C@@H](C)O)C(C)C)C(=O)N[C@@H](CC(C)C)C(=O)N[C@@H](CCC(=O)O)C(=O)NC(C)(C)C(=O)NCC(N)=O [Peptide 185] (H-H[Aib]QGTFTSDVSK[αMeF]LDTK([AEEA-AEEA-γGlu-C18 diacid])RAQDFVRWLLE[Aib]G-NH2; N-terminus assumed) |
| 0.101 nM | 0.0449 nM | 4.4 | CC(C)C[C@H](NC(=O)[C@H](CC(C)C)NC(=O)[C@H](Cc1c[nH]c2ccccc12)NC(=O)[C@H](CCCNC(=N)N)NC(=O)[C@@H](NC(=O)[C@H](Cc1ccccc1)NC(=O)[C@H](CC(=O)O)NC(=O)[C@H](CCC(N)=O)NC(=O)[C@H](C)NC(=O)[C@H](CCCNC(=N)N)NC(=O)[C@H](CCCCNC(=O)COCCOCCNC(=O)COCCOCCNC(=O)CC[C@H](NC(=O)CCCCCCCCCCCCCCCCC(=O)O)C(=O)O)NC(=O)[C@@H](NC(=O)[C@H](CC(=O)O)NC(=O)[C@H](CC(C)C)NC(=O)[C@](C)(Cc1ccccc1)NC(=O)[C@H](CCCCN)NC(=O)[C@H](CO)NC(=O)[C@@H](NC(=O)[C@H](CC(=O)O)NC(=O)[C@H](CO)NC(=O)[C@@H](NC(=O)[C@H](Cc1ccccc1)NC(=O)[C@@H](NC(=O)CNC(=O)[C@H](CCC(N)=O)NC(=O)C(C)(C)NC(=O)[C@@H](N)Cc1c[nH]cn1)[C@@H](C)O)[C@@H](C)O)C(C)C)[C@@H](C)O)C(C)C)C(=O)N[C@@H](CCC(=O)O)C(=O)N[C@@H](C)C(=O)NCC(=O)O [Peptide 186] (H-H[Aib]QGTFTSDVSK[αMeF]LDTK([AEEA-AEEA-γGlu-C18 diacid])RAQDFVRWLLEAG-OH; N-terminus assumed) |
| 0.0443 nM | 0.0113 nM | 7.7 | CC(C)C[C@H](NC(=O)[C@H](Cc1c[nH]c2ccccc12)NC(=O)[C@H](CCCNC(=N)N)NC(=O)[C@@H](NC(=O)[C@H](Cc1ccccc1)NC(=O)[C@H](CC(=O)O)NC(=O)[C@H](CCCNC(=N)N)NC(=O)[C@H](C)NC(=O)[C@H](CCCNC(=N)N)NC(=O)[C@H](CCCCNC(=O)COCCOCCNC(=O)COCCOCCNC(=O)CC[C@H](NC(=O)CCCCCCCCCCCCCCCCC(=O)O)C(=O)O)NC(=O)[C@@H](NC(=O)[C@H](CC(=O)O)NC(=O)[C@H](CC(C)C)NC(=O)[C@](C)(Cc1ccccc1)NC(=O)[C@H](CCCCN)NC(=O)[C@H](CO)NC(=O)[C@@H](NC(=O)[C@H](CC(=O)O)NC(=O)[C@H](CO)NC(=O)[C@@H](NC(=O)[C@H](Cc1ccccc1)NC(=O)[C@@H](NC(=O)CNC(=O)[C@H](CCC(N)=O)NC(=O)C(C)(C)NC(=O)[C@@H](N)Cc1c[nH]cn1)[C@@H](C)O)[C@@H](C)O)C(C)C)[C@@H](C)O)C(C)C)C(=O)N[C@@H](CC(C)C)C(=O)N[C@@H](CCC(=O)O)C(=O)NC(C)(C)C(=O)NCC(=O)O [Peptide 189] (H-H[Aib]QGTFTSDVSK[αMeF]LDTK([AEEA-AEEA-γGlu-C18 diacid])RARDFVRWLLE[Aib]G-OH; N-terminus assumed) |
| 0.227 nM | 0.108 nM | 4.2 | CC(C)C[C@H](NC(=O)[C@H](Cc1c[nH]c2ccccc12)NC(=O)[C@H](CCCNC(=N)N)NC(=O)[C@@H](NC(=O)[C@H](Cc1ccccc1)NC(=O)[C@H](CC(=O)O)NC(=O)[C@H](CCC(N)=O)NC(=O)[C@H](C)NC(=O)[C@H](CCCNC(=N)N)NC(=O)[C@H](CCCCNC(=O)COCCOCCNC(=O)COCCOCCNC(=O)CC[C@H](NC(=O)CCCCCCCCCCCCCCCCC(=O)O)C(=O)O)NC(=O)[C@@H](NC(=O)[C@H](CC(=O)O)NC(=O)[C@H](CC(C)C)NC(=O)[C@](C)(Cc1ccccc1)NC(=O)[C@H](CCCCN)NC(=O)[C@H](CO)NC(=O)[C@@H](NC(=O)[C@H](CC(=O)O)NC(=O)[C@H](CO)NC(=O)[C@@H](NC(=O)[C@H](Cc1ccccc1)NC(=O)[C@@H](NC(=O)CNC(=O)[C@H](CCC(N)=O)NC(=O)C(C)(C)NC(=O)[C@@H](N)Cc1c[nH]cn1)[C@@H](C)O)[C@@H](C)O)C(C)C)[C@@H](C)O)C(C)C)C(=O)N[C@@H](CC(C)C)C(=O)NC(C)(C)C(=O)N[C@@H](CCC(=O)O)C(=O)O [Peptide 192] (H-H[Aib]QGTFTSDVSK[αMeF]LDTK([AEEA-AEEA-γGlu-C18 diacid])RAQDFVRWLL[Aib]E-OH; N-terminus assumed) |
| 0.24 nM | 0.027 nM | 17.6 | CC[C@H](C)[C@H](NC(=O)[C@H](CC(C)C)NC(=O)[C@H](Cc1c[nH]c2ccccc12)NC(=O)[C@H](CCCNC(=N)N)NC(=O)[C@@H](NC(=O)[C@H](Cc1ccccc1)NC(=O)[C@H](CC(=O)O)NC(=O)[C@H](CCC(N)=O)NC(=O)[C@H](C)NC(=O)[C@H](CCCNC(=N)N)NC(=O)[C@H](CCCCNC(=O)COCCOCCNC(=O)COCCOCCNC(=O)CC[C@H](NC(=O)CCCCCCCCCCCCCCCCC(=O)O)C(=O)O)NC(=O)[C@H](CO)NC(=O)[C@H](CC(=O)O)NC(=O)[C@H](CC(C)C)NC(=O)[C@](C)(Cc1ccccc1)NC(=O)[C@H](CCCCN)NC(=O)[C@H](CO)NC(=O)[C@@H](NC(=O)[C@H](CC(=O)O)NC(=O)[C@H](CO)NC(=O)[C@@H](NC(=O)[C@H](Cc1ccccc1)NC(=O)[C@@H](NC(=O)CNC(=O)[C@H](CCC(N)=O)NC(=O)C(C)(C)NC(=O)[C@@H](N)Cc1c[nH]cn1)[C@@H](C)O)[C@@H](C)O)C(C)C)C(C)C)C(=O)NC(C)(C)C(=O)N[C@@H](CCC(=O)O)C(=O)O [Peptide 196] (H-H[Aib]QGTFTSDVSK[αMeF]LDSK([AEEA-AEEA-γGlu-C18 diacid])RAQDFVRWLI[Aib]E-OH; N-terminus assumed) |
